Here are results for three compounds from US20100144763A1, “Pharmaceutical composition for inhibiting topoisomerase I and method for exploiting drug” (priority 2008, published 2010).

Molecules are shown by their SMILES. A value given as a limit tells only on which side of the number the result lay.

In assay [1] the test system is human breast MCF-7 carcinoma cells. As to the kind of experiment: MTT assay, cell growth inhibition / cytotoxicity. Format: cell-based. The conditions noted are these: MCF7, 24 h, read-out: IC50, cytotoxicity. The protocol: Example 1 relates to cell growth inhibition of EVO according to the present invention. Breast cancer MCF-7 cells are cultured in Dulbecco's modified Eagle medium (DMEM) supplemented with 10% heat-inactivated fetal bovine serum (FBS), and 100 μg/ml penicillin-streptomycin. Conditions were maintained in a humidified 95% air/5% CO2 incubator at 37° C. The MTT [3-(4,5-dimethylthiazol-2-yl)-2,5-diphenyl tetrazolium bromide] assay was described previously to test the cytotoxicity of reagents and cell viability (Lin, Tsai, Chen, Chang, Lee et al., 2008). Cells (5000 cells/well) are grown on a 96-well plate supplemented with DMEM medium (with 1% FBS) for 24 hours. Then, cells are treated with CPT or EVO ([…]), and the viability is determined by the reduction of MTT. An MTT stock solution (5 mg of MTT/ml of PBS) is added to the growing cultures (at a final concentration of 0.5 mg/ml). The OD is measured with a spectrophotometer at 560 nm. A blank with DMSO alone is measured and subtracted from all values.
The cytotoxic abilities of EVO and CPT are tested against human breast MCF-7 carcinoma cells, which express high levels of TopoI. CPT is used as a reference drug. Both compounds display efficient cytotoxicity after 24 h of drug exposure. […] Consequently, EVO is slightly less cytotoxic than CPT against breast MCF-7 carcinoma cells.
(In general: Formazan colour is commonly taken as a measure of viable cells.)

The target of assay [2] is T1, DNA TopoI from the vaccinia virus (Vaccinia virus, UniProt P68698).
T1 construct: purchased EPICENTRE Biotechnologies, Madison, Wis
Format: biochemical.

For assay [3], the target named is T2, purified recombinant eukaryotic TopoI (Homo sapiens, UniProt P11387).
T2 sequence (P11387 1-765): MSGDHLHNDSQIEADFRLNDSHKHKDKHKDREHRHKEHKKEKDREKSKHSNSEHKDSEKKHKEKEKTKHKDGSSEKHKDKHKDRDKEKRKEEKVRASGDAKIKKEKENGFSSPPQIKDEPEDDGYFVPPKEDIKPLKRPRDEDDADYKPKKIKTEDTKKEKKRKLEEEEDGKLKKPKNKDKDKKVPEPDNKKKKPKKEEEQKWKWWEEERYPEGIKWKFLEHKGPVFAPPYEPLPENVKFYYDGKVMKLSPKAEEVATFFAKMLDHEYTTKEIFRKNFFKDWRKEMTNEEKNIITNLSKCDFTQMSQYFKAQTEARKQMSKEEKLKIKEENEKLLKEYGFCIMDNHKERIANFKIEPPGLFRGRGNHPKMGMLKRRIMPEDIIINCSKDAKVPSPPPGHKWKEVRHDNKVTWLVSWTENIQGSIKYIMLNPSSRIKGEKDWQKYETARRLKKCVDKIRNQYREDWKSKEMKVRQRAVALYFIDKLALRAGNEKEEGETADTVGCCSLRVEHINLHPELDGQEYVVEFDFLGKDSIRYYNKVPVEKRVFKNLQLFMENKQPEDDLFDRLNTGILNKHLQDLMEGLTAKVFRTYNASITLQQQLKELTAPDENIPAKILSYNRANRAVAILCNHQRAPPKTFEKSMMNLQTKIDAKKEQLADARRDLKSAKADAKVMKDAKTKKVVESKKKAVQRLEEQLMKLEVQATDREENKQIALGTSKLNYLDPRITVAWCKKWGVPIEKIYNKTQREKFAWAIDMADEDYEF
Format: biochemical. The conditions noted are these: supercoiled DNA relaxation, TopoI prepared from recombinant DNA.

Assay [4] addresses T3, free-form TopoI in MCF-7 cells (Homo sapiens, UniProt P11387).
T3 construct: endogenous in cells; host or cells: MCF-7
T3 sequence (P11387 1-765): T2 sequence (P11387 1-765)
As to the kind of experiment: depletion assay for free-form TopoI (immunoblotting). The format is cell-based. The protocol: Example 3 relates to detection of the levels of free-form TopoI from breast cancer cells reduced by EVO according to the present invention. Provided that EVO is able to fix TopoI on DNA, the level of free-form TopoI should be decreased. Monolayers that are breast cancer MCF-7 cells of 50%—80% confluent are treated with drugs for a short time, and then cellular proteins are extracted from the MCF-7 cells. After that, the cellular proteins are separated electrophoretically in a 7.5% SDS polyacrylamide gel and electro-transferred to a polyvinylidene difluoride (PVDF) membrane. The membrane is incubated with the primary antibody (rabbit anti-human topoisomerase I antisera) at room temperature for 2 hours, and then incubated with a horseradish peroxidase-conjugated secondary immunoglobulin G (IgG) antibody. The immunoreactive bands are visualized with enhanced chemiluminescent reagents and photographed using a gel documentation system.
A depletion assay for free-form TopoI is performed to confirm the effect of EVO on DNA topological catalysis of TopoI. This assay is based on the ability of CPT to trap TopoI and DNA to form a CPT-TopoI-DNA triple complex, to see if EVO inhibits TopoI activity through a similar mechanism. […] Depletion of TopoI protein by EVO is also detected in a concentration-dependent manner after 1 hour of treatment. […]

For assay [5], the target named is T4, TopoI-DNA complex in 3H-thymidine-labeled MCF-7 cells (Homo sapiens, UniProt P11387).
T4 construct: endogenous in cells; host or cells: MCF-7
T4 sequence (P11387 1-765): T2 sequence (P11387 1-765)
As to the kind of experiment: KCl/SDS precipitation assay, TopoI-DNA complex trapping. The format is cell-based. The settings on record: 30 μM, 60 minutes, FIG. 4. The protocol: Example 4 relates to using a KCl/SDS precipitation assay to show TopoI-DNA complex trapping activity of EVO according to the present invention. The formation of a cleavable complex in intact cells is quantified by a KCl-sodium dodecylsulfate (SDS) precipitation technique, a modified procedure described previously by Yoshinari et al. (1993). Cellular DNA is labeled by adding ^3H-thymidine to the medium to a final concentration of 10 μCi/ml. After an overnight incubation, cells are plated to a density of 1×10^5 cells/well in a 24-well plate for another overnight incubation, and treated with various concentrations of EVO (0˜30 μM) for 60 minutes. The medium is removed from each well, and cells are washed with phosphate-buffered saline (PBS) and lysed with 1 ml of prewarmed (65° C.) lysis solution (1.25% SDS, 5 mM EDTA, 0.4 mg/ml salmon sperm DNA). Lysate is sheared using a 21-gauge needle. The samples as background control are treated by the above procedure but with proteinase K (400 μg/ml) in the lysis buffer, and are incubated at 50° C. for 2 hour. KCl (325 mM), at 250 μl, is added to each sample, vortexed vigorously, cooled on ice for 10 minutes, and centrifuged at 2500 rpm for 10 minutes at 4° C. […] The pellet is resuspended in 400 μl prewarmed H2O (65° C.) and combined with 4 ml scintillation liquid, and the radioactivity counts are determined using a liquid scintillation counter. […]

Take `CN1c2ccccc2C(=O)N2CCc3c([nH]c4ccccc34)C21` (stereo not drawn) [EVO, Evodiamine]: the IC50 (as a rule, the concentration that gives 50% inhibition) in assay [1] came to 6.02 µM. For the same compound, the “inhibition of supercoiled plasmid DNA relaxation catalyzed by TopoI” value in assay [2] is on record as “inhibitory activity on TopoI catalytic relaxation in a dose-dependent manner”. In addition, the “inhibition activity toward purified recombinant eukaryotic TopoI” value in assay [3] is “inhibited”. In assay [4] (0˜10 μM, 1 hour of treatment, FIG. 3B), the “relative level of DNA-unlinked TopoI protein versus the control” value was under 40%. Besides, the “TopoI protein level in comparison to the untreated control” value in assay [4] (10 μM, 120-minute treatment, FIG. 3A) is under 20%. Besides, in assay [5], the “3H-thymidine-labeled DNA trapped in a covalent complex with TopoI” value was determined as 43.6%.
Turning to `O=c1c2ccccc2nc2n1CCc1c-2[nH]c2ccccc12` [rutaecarpine], the “inhibitory activity on TopoI catalytic supercoiled plasmid relaxation, compared with CPT and EVO” value in assay [2] is “substantially equivalent to those of CPT and EVO”.
Consider `CC[C@@]1(O)C(=O)OCc2c1cc1n(c2=O)Cc2cc3ccccc3nc2-1` [CPT, Camptothecin, reference compound], for which the IC50 in assay [1] stood at 3.23 µM. In assay [2], the “inhibition of supercoiled plasmid DNA relaxation catalyzed by TopoI” value is listed as “retain a greater amount of uncatalytic supercoiled DNA in a dose-dependent manner”.
